The nature of series [1]: Particle Size Distribution (PSD) by Laser Diffraction Spectrometry (Malvern Mastersizer 2000). Type of series: physicochemical. The following applies: sample in heptane with 0.2% Span-20, by volume. Here is the method: Laser Diffraction Spectrometry (LDS) was used to determine the Particle Size Distribution (PSD). The samples were prepared by mixing 100 mg of asenapine maleate with 5 mL of heptane that contains 0.2% of Span-20. Ultrasonic treatment of the samples was performed for 5 minutes and the PSD was analysed using a particle size analyzer Malvern Mastersizer 2000. Refractive index of asenapine 1.800 and absorption 0.01.

Series [2] is described as follows: Outcome of micronisation of asenapine maleate crystals. It is filed as physicochemical. The following applies: micronised crystals, prepared as disclosed in U.S. Pat. No. 4,145,434. As for the experimental part: As described in Funke et al., Arzneim.-Forsch./Drug Res., 40:536-539 (1990), asenapine maleate (Form H) was the first known polymorphic form. Form H is a monoclinic crystalline form having a melting point in the range of 141° C. to 145° C. EP 1 710 245 B1 and EP 1 917 267 B1 described the discovery of a new form of asenapine maleate (Form L), which is an orthorhombic crystalline form having a melting point in the range of 138° C. to 142° C. EP 1 710 245 131 and EP 1 917 267 B1 mention the importance of asenapine particle size since asenapine commercial sublingual tablets are dissolved in the mouth. Thus, particles having a size distribution characterized by a d95 (95% volume of the particles are smaller than or equal to the indicated size) of about 100 μm or less, more preferably about 50 μm or less, and even more preferably about 30 μm or less, is desirable for sublingual formulations. According to EP 1 710 245 B1 and EP 1 917 267 B1, the outcome of the micronisation process used therein, and which is necessary to reduce the particle size of crystals, appeared to be unpredictable when crystals of monoclinic form of asenapine maleate were subjected to the micronisation process. […]

For series [3] the following is noted: micronised, per EP 1 710 245 B1 and EP 1 917 267 B1; cited from earlier work.

Where a name gives a salt, the structure may show the parent alone.

Consider `CN1C[C@@H]2c3ccccc3Oc3ccc(Cl)cc3[C@H]2C1` (racemic) [Example 6, asenapine maleate], for which, in series [1], the “PSD d90” value came out at 46 μm and the “PSD d95” value was 56 μm.

On to `CN1C[C@@H]2c3ccccc3Oc3ccc(Cl)cc3[C@H]2C1` (racemic) [Example 11, asenapine maleate], for which, in series [1], the “PSD d90” value is 17 μm and the “PSD d95” value is on record as 21 μm.

For `CN1C[C@@H]2c3ccccc3Oc3ccc(Cl)cc3[C@H]2C1` (racemic) [monoclinic form of asenapine maleate, asenapine maleate], the “polymorphic stability after micronisation” value in series [2] was “not stable and eventually evolved to the orthorhombic crystalline form”.

Take `CN1C[C@@H]2c3ccccc3Oc3ccc(Cl)cc3[C@H]2C1` (racemic) [Example 12, asenapine maleate]: in series [1], the “PSD d90” value is reported as 53 μm and the “PSD d95” value was 120 μm.

As to `CN1C[C@@H]2c3ccccc3Oc3ccc(Cl)cc3[C@H]2C1` (racemic) [Example 5, asenapine maleate], in series [1], the “PSD d90” value is recorded as 29 μm and the “PSD d95” value is 35 μm.

As to `CN1C[C@@H]2c3ccccc3Oc3ccc(Cl)cc3[C@H]2C1` (racemic) [Example 13, asenapine maleate], in series [1], the “PSD d90” value was found to be 31 μm and the “PSD d95” value is on record as 38 μm.

For `CN1C[C@@H]2c3ccccc3Oc3ccc(Cl)cc3[C@H]2C1` (racemic) [Example 8, asenapine maleate], in series [1], the “PSD d90” value is given as 54 μm and the “PSD d95” value worked out at 68 μm.

Take `CN1C[C@@H]2c3ccccc3Oc3ccc(Cl)cc3[C@H]2C1` (racemic) [Example 1, asenapine maleate]: in series [1], the “PSD d90” value turned out to be 16 μm and the “PSD d95” value was 24 μm.

Consider `CN1C[C@@H]2c3ccccc3Oc3ccc(Cl)cc3[C@H]2C1` (racemic) [asenapine maleate], for which, in series [3], the d95 after micronisation is no more than 30 μm.

As to `CN1C[C@@H]2c3ccccc3Oc3ccc(Cl)cc3[C@H]2C1` (racemic) [Example 10, asenapine maleate], in series [1], the “PSD d90” value was 37 μm and the “PSD d95” value worked out at 49 μm.

For `CN1C[C@@H]2c3ccccc3Oc3ccc(Cl)cc3[C@H]2C1` (racemic) [Example 4, asenapine maleate], in series [1], the “PSD d90” value came out at 21 μm and the “PSD d95” value came out at 28 μm.

Turning to `CN1C[C@@H]2c3ccccc3Oc3ccc(Cl)cc3[C@H]2C1` (racemic) [Example 9, asenapine maleate], in series [1], the “PSD d90” value is recorded as 23 μm and the “PSD d95” value came to 28 μm.

For the compound `CN1C[C@@H]2c3ccccc3Oc3ccc(Cl)cc3[C@H]2C1` (racemic) [Example 3, asenapine maleate], in series [1], the “PSD d90” value is 31 μm and the “PSD d95” value worked out at 37 μm.

`CN1C[C@@H]2c3ccccc3Oc3ccc(Cl)cc3[C@H]2C1` (racemic) [Example 2, asenapine maleate]: in series [1], the “PSD d90” value is 15 μm and the “PSD d95” value was found to be 20 μm.

In the case of `CN1C[C@@H]2c3ccccc3Oc3ccc(Cl)cc3[C@H]2C1` (racemic) [Example 7, asenapine maleate], in series [1], the “PSD d90” value came to 36 μm and the “PSD d95” value was 48 μm.

(Values after US9533994B2, “Monoclinic crystalline form of asenapine maleate with a specific particle size distribution” (Laboratorios Lesvi S.L., priority 2011, dated 2017).)
